Experiments:
[1] = target: T1, human mGlu5a receptor (Homo sapiens (Human), UniProt P41594); assay: MPEP binding assay ([3H]MPEP displacement); settings: for EC50: [3H]MPEP 2 nM, EBNA cell membranes, 1 h at 4° C., read-out: mGlu5-MPEP binding EC50; for Ki: comparison table
Method: For binding experiments, cDNA encoding human mGlu 5a receptor was transiently transfected into EBNA cells using a procedure described by Schlaeger and Christensen [Cytotechnology 15:1-13 (1998)]. Cell membrane homogenates were stored at −80° C. until the day of assay where upon they were thawed and resuspended and polytronised in 15 mM Tris-HCl, 120 mM NaCl, 100 mM KCl, 25 mM CaCl2, 25 mM MgCl2 binding buffer at pH 7.4 to a final assay concentration of 20 μg protein/well.
Saturation isotherms were determined by addition of twelve [^3H]MPEP concentrations (0.04-100 nM) to these membranes (in a total volume of 200 μl) for 1 h at 4° C. Competition experiments were performed with a fixed concentration of [^3H]MPEP (2 nM) and IC50 values of test compounds evaluated using 11 concentrations (0.3-10,000 nM). Incubations were performed for 1 h at 4° C.
At the end of the incubation, membranes were filtered onto unifilter (96-well white microplate with bonded GF/C filter preincubated 1 h in 0.1% PEI in wash buffer, Packard BioScience, Meriden, Conn.) with a Filtermate 96 harvester (Packard BioScience) and washed 3 times with cold 50 mM Tris-HCl, pH 7.4 buffer. Nonspecific binding was measured in the presence of 10 μM MPEP. The radioactivity on the filter was counted (3 min) on a Packard Top-count microplate scintillation counter with quenching correction after addition of 45 μl of microscint 40 (Canberra Packard S. A., Zürich, Switzerland) and shaking for 20 min.

[2] = target: T1, human mGlu5a receptor; assay: Intracellular Ca2+ mobilization assay (mGlu5 PAM assay); assay type: cell-based; settings: for mGlu5 PAM EC50: HEK-293 cells, human mGlu5a, L-glutamate at EC20; for Activity profile: PAM = positive, NAM = negative allosteric modulator of mGlu5; for EC50 mGlu5 PAM assay: comparison table; for Efficacy: maximal response in % of maximal stimulatory effect of saturating L-glutamate
Method: A monoclonal HEK-293 cell line stably transfected with a cDNA encoding for the human mGlu5a receptor was generated; for the work with mGlu5 Positive Allosteric Modulators (PAMs), a cell line with low receptor expression levels and low constitutive receptor activity was selected to allow the differentiation of agonistic versus PAM activity. Cells were cultured according to standard protocols (Freshney, 2000) in Dulbecco's Modified Eagle Medium with high glucose supplemented with 1 mM glutamine, 10% (vol/vol) heat-inactivated bovine calf serum, Penicillin/Streptomycin, 50 μg/ml hygromycin and 15 μg/ml blasticidin (all cell culture reagents and antibiotics from Invitrogen, Basel, Switzerland).
About 24 hrs before an experiment, 5×10^4 cells/well were seeded in poly-D-lysine coated, black/clear-bottomed 96-well plates. The cells were loaded with 2.5 μM Fluo-4AM in loading buffer (1×HBSS, 20 mM HEPES) for 1 hr at 37° C. and washed five times with loading buffer. The cells were transferred into a Functional Drug Screening System 7000 (Hamamatsu, Paris, France), and 11 half logarithmic serial dilutions of test compound at 37° C. were added and the cells were incubated for 10-30 min. with on-line recording of fluorescence. Following this pre-incubation step, the agonist L-glutamate was added to the cells at a concentration corresponding to EC20 (typically around 80 μM) with on-line recording of fluorescence; in order to account for day-to-day variations in the responsiveness of cells, the EC20 of glutamate was determined immediately ahead of each experiment by recording of a full dose-response curve of glutamate.
Responses were measured as peak increase in fluorescence minus basal (i.e. fluorescence without addition of L-glutamate), normalized to the maximal stimulatory effect obtained with saturating concentrations of L-glutamate. Graphs were plotted with the % maximal stimulatory using XLfit, a curve fitting program that iteratively plots the data using Levenburg Marquardt algorithm. The single site competition analysis equation used was y=A+((B−A)/(1+((x/C)D))), where y is the % maximal stimulatory effect, A is the minimum y, B is the maximum y, C is the EC50, x is the log 10 of the concentration of the competing compound and D is the slope of the curve (the Hill Coefficient). From these curves the EC50 (concentration at which half maximal stimulation was achieved), the Hill coefficient as well as the maximal response in % of the maximal stimulatory effect obtained with saturating concentrations of L-glutamate were calculated.
A depression of the signal observed after addition of the EC20 concentration of L-glutamate was indicative of an inhibitory activity of the test compound.

T1 sequence (P41594 other isoform, or with tags, fused parts or gaps): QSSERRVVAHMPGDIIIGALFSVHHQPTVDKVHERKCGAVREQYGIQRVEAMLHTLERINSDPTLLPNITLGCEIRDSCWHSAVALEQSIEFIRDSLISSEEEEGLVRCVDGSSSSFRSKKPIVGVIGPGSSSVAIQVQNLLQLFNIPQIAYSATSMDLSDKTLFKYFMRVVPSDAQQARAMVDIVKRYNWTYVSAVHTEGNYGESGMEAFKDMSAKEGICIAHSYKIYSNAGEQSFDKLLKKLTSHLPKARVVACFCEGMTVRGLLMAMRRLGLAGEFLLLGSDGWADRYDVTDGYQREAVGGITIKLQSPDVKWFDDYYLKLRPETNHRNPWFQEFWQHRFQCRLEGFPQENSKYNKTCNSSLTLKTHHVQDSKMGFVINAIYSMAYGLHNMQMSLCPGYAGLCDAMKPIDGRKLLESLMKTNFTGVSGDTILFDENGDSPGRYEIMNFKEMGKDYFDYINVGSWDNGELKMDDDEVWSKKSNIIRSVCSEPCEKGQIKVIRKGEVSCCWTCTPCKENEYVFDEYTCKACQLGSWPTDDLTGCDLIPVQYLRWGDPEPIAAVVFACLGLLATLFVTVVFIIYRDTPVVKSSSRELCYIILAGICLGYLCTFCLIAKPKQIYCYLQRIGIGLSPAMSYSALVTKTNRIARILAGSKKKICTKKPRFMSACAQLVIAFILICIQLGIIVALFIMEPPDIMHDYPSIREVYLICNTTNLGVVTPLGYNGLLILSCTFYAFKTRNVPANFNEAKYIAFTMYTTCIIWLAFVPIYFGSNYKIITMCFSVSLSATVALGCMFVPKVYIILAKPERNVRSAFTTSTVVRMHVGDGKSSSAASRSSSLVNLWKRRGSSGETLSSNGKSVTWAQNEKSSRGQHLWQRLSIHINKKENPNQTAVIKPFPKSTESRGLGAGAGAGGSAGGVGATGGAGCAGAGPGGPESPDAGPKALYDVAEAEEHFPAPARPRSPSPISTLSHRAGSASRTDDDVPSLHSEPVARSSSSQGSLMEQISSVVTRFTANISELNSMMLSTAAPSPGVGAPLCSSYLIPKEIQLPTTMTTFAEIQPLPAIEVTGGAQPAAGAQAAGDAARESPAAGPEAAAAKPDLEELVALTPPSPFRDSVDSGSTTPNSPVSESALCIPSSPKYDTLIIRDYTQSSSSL

| SMILES | EC50 [1] | Ki [1] | mGlu5 PAM EC50 [2] | Activity profile [2] | EC50 mGlu5 PAM assay [2] | Efficacy [2] |
| --- | --- | --- | --- | --- | --- | --- |
| CCN(C(=O)c1ncc(C#Cc2cccc(Cl)c2)cn1)C(C)(C)C [Example 4, 5-(3-Chloro-phenylethynyl)-pyrimidine-2-carboxylic acid tert-butyl-ethyl-amide] | 46 nM | 46 nM | in- active | NAM | inactive |  |
| CN(C(=O)c1ncc(C#Cc2cccc(F)c2)cn1)C(C)(C)C [Reference compound 2, reference compound] | 51 nM | 51 nM |  | PAM |  | 55% |
| CN(C(=O)c1ccc(C#Cc2cccc(F)c2)cn1)C(C)(C)C [Reference compound 1, reference compound] | 29 nM |  |  | PAM |  | 64% |

The next lines start with results.

| EC50 [1] | Ki [1] | mGlu5 PAM EC50 [2] | Activity profile [2] | EC50 mGlu5 PAM assay [2] | SMILES | Efficacy [2] |
| --- | --- | --- | --- | --- | --- | --- |
| 94 nM | 94 nM | in- active | NAM | inactive | CCN(C(=O)c1ncc(C#Cc2cccc(F)c2)cn1)C(C)(C)C [Example 3, 5-(3-Fluoro-phenylethynyl)-pyrimidine-2-carboxylic acid tert-butyl-ethyl-amide] |  |
| 42 nM | 42 nM | in- active | NAM | inactive | CCN(C(=O)c1ccc(C#Cc2cccc(F)c2)cn1)C(C)(C)C [Example 1, 5-(3-Fluoro-phenylethynyl)-pyridine-2-carboxylic acid tert-butyl-ethyl-amide] |  |
| 24 nM | 24 nM | in- active | NAM | inactive | CCN(C(=O)c1ccc(C#Cc2cccc(Cl)c2)cn1)C(C)(C)C [Example 2, 5-(3-Chloro-phenylethynyl)-pyridine-2-carboxylic acid tert-butyl-ethyl-amide] |  |

Source: patent US9359301B2, “Ethynyl derivatives” (Hoffmann-La Roche Inc., priority 2012, dated 2016)
